Results published in ChEMBL document CHEMBL1157539, “Thousands of chemical starting points for antimalarial lead identification” (Nature, 2010).

System: Plasmodium falciparum
Test: GSK_TCMDC: Inhibition of Plasmodium falciparum 3D7 in whole erythrocytes, using parasite LDH activity as an index of growth.
Assay type: functional, organism-based
Details: Plasmodium falciparum, 3D7

| SMILES | XC50 |
| --- | --- |
| COc1ccc2nccc(N/N=C/c3cccc([N+](=O)[O-])c3)c2c1 | 398 nM |
| CN1CC=C(c2c[nH]c3ccc(OCc4ccccc4)cc23)CC1 | 718 nM |
| CCn1ncc2c(NC3CCOCC3)c(CNC(=O)c3ccnn3C)c(C)nc21 | 533 nM |
| COc1ccc(Oc2ccc(Nc3ccnc4ccc(C(F)(F)F)cc34)cc2)cc1OC | 1060 nM |
| COc1ccc2c(c1)CC1CN(CCCCNC(=O)c3ccc(NC(=O)c4cc(Cl)cc(Cl)c4)cc3)CCN1C2 (stereo unspecified) | 767 nM |
| COc1ccc2nccc([C@@H](O)CN3CCC(NC(=O)Cc4cccc5c(Br)cccc45)CC3)c2c1 | 796 nM |
| CCOc1ccc2c(=NN=Cc3ccccc3OC)cc(C)[nH]c2c1 | 496 nM |
| O=C(/C=C/c1ccc(Cl)c(Cl)c1)NCCCCCN1CCC(NC(=O)Nc2ccc3c(c2)OCO3)CC1 | 713 nM |
| Cc1cc(NCCC(=O)NCc2cccc(F)c2)nc(NCCc2ccc(F)cc2)n1 | 1750 nM |
| c1ccc(CNCc2cccc(-c3cccc(-c4nc5ccccc5[nH]4)c3)c2)cc1 | 569 nM |
| CCn1cc(CN2C(=O)C(c3ccccc3)(c3ccccc3)N=C2N)cn1 | 820 nM |
| CCC(CC)NCc1c(O)ccc2c(CNC(CC)CC)c(O)ccc12 | 390 nM |
| Cc1noc(C)c1-c1cccc(CNCc2ccc(-c3ccc(-c4nc5cccc(C)c5[nH]4)cc3)cc2)c1 | 239 nM |
| O=C(CCCCCNC(=O)c1ccc(O)c(-c2ccc(Cl)c(Cl)c2)c1)NCc1cccc(C(F)(F)F)c1 | 731 nM |
| COc1ccc2[nH]c(C)cc(=NN=Cc3cc(C)ccc3O)c2c1 | 143 nM |
| COc1cc(OC)cc(-c2nnc(Sc3ccc(C#N)c([N+](=O)[O-])c3)n2C)c1 | 937 nM |
| Cc1noc(C)c1-c1cccc(CNCc2ccc(-c3cccc(-c4nc5cc(F)ccc5[nH]4)c3)cc2)c1 | 545 nM |
| Cc1cccc(OC(C)C(=O)Nc2cc(C(F)(F)F)ccc2N2CCOCC2)c1 (stereo unspecified) | 237 nM |
| COc1ccc(CCNC(=O)c2ccc(-n3cc(NC(=O)c4cccnc4)cn3)cc2)cc1OC | 1070 nM |
| COc1ccc(CNCc2cccc(-c3cccc(-c4nc5ccccc5[nH]4)c3)c2)cc1 | 368 nM |
| CCOc1ccc(NC(=O)c2cccc(CN3CCCN(Cc4cccc(O)c4)CC3)c2)cc1 | 1080 nM |
| COCCN1CCN(Cc2ccc(-c3ccc(-c4nc5cccc(C)c5[nH]4)s3)cc2)CC1 | 859 nM |
| O=C(Nc1ccc(OCc2ccccc2)cc1)c1nc2ccccc2nc1Cl | 254 nM |
| c1ccc(C2=NN=C(c3ccccn3)C3C4CC(C23)C2C3CC(c5ccccc53)C42)nc1 (stereo unspecified) | 853 nM |

| SMILES | XC50 |
| --- | --- |
| O=C(Cc1cccc(OCCCN(Cc2cccc(C(F)(F)F)c2Cl)CC(c2ccccc2)c2ccccc2)c1)NCc1ccco1 | 937 nM |
| CCCCCCNC(=O)C1Cc2c([nH]c3cc(Cl)ccc23)C2(CCN(CCC)CC2)N1 (stereo unspecified) | 880 nM |
| Cc1nc2nc(N)nc(N)c2c(C)c1Cc1ccccc1Cl | 112 nM |
| CC(C)CNCc1ccc(-c2ccc(CN(C(=O)NCCc3ccccc3)C3CCN(Cc4ccccc4)CC3)cc2)cc1 | 699 nM |
| CC(C)(C(=O)NCCC1CCN(CCCCCNC(=O)/C=C/c2ccc(Cl)c(Cl)c2)CC1)c1ccc(Cl)cc1 | 1280 nM |
| CN(C)c1ccc(-c2csc(C(=O)NC3CCCCN(CCC(C)(C)C)C3)c2)cc1 (stereo unspecified) | 1050 nM |
| CC[C@H](C)CNC(=O)c1ccnc(-c2ccc(CN3CCC(N4CCCC4)CC3)cc2)c1 | 891 nM |
| CCOC(=O)N1CCN(CCCCNc2c3ccc(Cl)cc3nc3ccc(OC)cc23)CC1 | 121 nM |
| CCNc1cc(C(=O)N[C@@H](Cc2ccccc2)[C@H](O)CNC(C)C)cc(N2CC(c3ccccc3)CCS2(=O)=O)c1 (stereo partly specified) | 412 nM |
| Cc1ccc(Nc2nnc(SCC(=O)Nc3ccc(CN4CCCC4)cc3)s2)cc1 | 1210 nM |
| N[C@@H](Cc1cc(I)c(Oc2ccc(O)c(C(=O)O)c2)c(I)c1)C(=O)O | 991 nM |
| CN(C)Cc1cccc(-c2ccc(NC(=O)c3ccc4c(=O)n(CCN5CCCCC5)cnc4c3)cc2)c1 | 650 nM |
| O=C(NCCc1cccc(F)c1)c1cc(Br)cc(N2CCN(c3ccncc3)CC2)c1 | 764 nM |
| Cn1cccc1CCNCc1ccc(-c2cccc(-c3nc4ccccc4[nH]3)c2)cc1 | 1210 nM |
| O=C(CCn1c2ccccc2c2ccccc21)NN=Cc1ccco1 | 588 nM |
| Ic1cc(CNC2CCCCC2)ccc1OCc1cccc(COc2ccc(CNC3CCCCC3)cc2I)c1 | 829 nM |
| CC(Cc1ccc(NC(=O)c2ccc(CC(C)NCc3ccc(Cl)c(Cl)c3)cc2)cc1)NCCc1cccc(Cl)c1 (stereo unspecified) | 1000 nM |
| CC(=O)N1CCC(C(=O)Nc2ccc(-c3cccc(-c4nc5cc(C(F)(F)F)ccc5[nH]4)c3)cc2)CC1 | 239 nM |
| CN(c1ncc(-c2cccc(CNCc3ccccc3O)c2)cn1)C1CCCCC1 | 822 nM |
| CC(=O)Oc1cc(OCc2ccccc2)c(OC(C)=O)c(OCc2ccccc2)c1 | 407 nM |
| CC(C)CNCc1cccc(-c2cccc(CNc3ccc4ncccc4c3)c2)c1 | 947 nM |
| Cc1cc(NCc2ccccc2)nc(NCc2ccccc2)n1 | 974 nM |
| COc1ccc(-c2ccc(CNCc3ccccc3)cc2)cc1S(=O)(=O)NCCN1CCCC1 | 726 nM |
| CC[C@H]1CN2CC[C@@H]1C[C@H]2[C@H](O)c1cc(-c2ccc(Cl)c(Cl)c2)nc2ccc(O)cc12 | 262 nM |

| SMILES | XC50 |
| --- | --- |
| CCOC(=O)c1c(C)n(-c2ccccc2)c2ccc(O)cc12 | 475 nM |
| Cc1nnsc1C(=O)Nc1ccc(-c2cccc(-c3nc4cc(C(F)(F)F)ccc4[nH]3)c2)cc1 | 838 nM |
| Nc1nc(N)c(-c2ccccc2)c(=O)[nH]1 | 1000 nM |
| CNc1ccc(CNCc2cccc(-c3ccc(-c4nc5ccccc5[nH]4)s3)c2)cc1 | 734 nM |
| CN(C)CCCn1cc(C(=O)OC2CC3CCC(C2)N3C)c2cc(-c3ccccc3)ccc21 (stereo unspecified) | 837 nM |
| O=C(/C=C/c1ccc(Cl)c(Cl)c1)NCCCCCCN1CCN(C(=O)Nc2ccc(F)c(Cl)c2)CC1 | 938 nM |
| Cc1cccc2nc(-c3ccc(-c4ccc(CN5CC(C)OC(C)C5)cc4)cc3)[nH]c12 (stereo unspecified) | 523 nM |
| O=C(/C=C/c1ccccc1Cl)Nc1ccc(Br)c(OCCN2CCN(CCN3CCCC3)CC2)c1 | 653 nM |
| COc1ccc(NC(=O)Nc2ccc(-c3cccc(-c4nc5cccc(C)c5[nH]4)c3)cc2)cc1 | 142 nM |
| N#Cc1ccc(CN2CCC(Oc3ccc(NC(=O)c4cccs4)cc3Cl)CC2)cc1 | 577 nM |
| Cc1ccc(C(C#N)c2ccc3c(C(F)(F)F)cc(C(F)(F)F)nc3n2)cc1 (stereo unspecified) | 700 nM |
| N=C(N)c1ccc(OCc2cccc(COc3ccc(C(=N)N)cc3I)c2)c(I)c1 | 337 nM |
| COc1ccc2nccc([C@@H](O)CN3CCC(NCCNc4ccccn4)CC3)c2c1 | 741 nM |
| COc1cc(C(=O)N2CCOC(CCN3CCC4c5ccccc5CC43)(c3ccc(Cl)c(Cl)c3)C2)cc(OC)c1OC (stereo unspecified) | 529 nM |
| COc1cc2nc(N3CCC(CNC(=O)c4ccc(-c5ccc(C#N)cc5)cc4)CC3)nc(N)c2cc1OC | 796 nM |
| O=C(NCCCCN1CCN(CC=Cc2ccccc2)CC1)c1ccc(NC(=O)c2cc(Cl)cc(Cl)c2)cc1 | 208 nM |
| COc1cc(Cc2cnc(N)nc2N)cc(OCCCCC2SC(=O)NC2=O)c1OC (stereo unspecified) | 30.7 nM |
| COc1cc2c(cc1OC)C(c1ccc(Br)cc1)CN(C)CC2 (stereo unspecified) | 943 nM |
| CC(=O)N(C)c1ccc(C(=O)Nc2cccc(-c3cccc(-c4nc5cccc(C)c5[nH]4)c3)c2)cc1 | 620 nM |
| O=C(Nc1cccc([N+](=O)[O-])c1)Nc1cccc(C(F)(F)F)c1 | 767 nM |
| CC(=O)Nc1ncc(C(=O)Nc2cccc(-c3cccc(-c4nc5cc(F)ccc5[nH]4)c3)c2)s1 | 454 nM |
| Nc1ncc(-c2ccc(F)c(Cl)c2)c(N)n1 | 1230 nM |
| COCCn1c(-c2cccc(Cl)c2)nn(-c2ccc([N+](=O)[O-])cc2Cl)c1=S | 737 nM |
| COC(=O)c1cccc(CNCc2cccc(-c3ccc(-c4nc5cc(C(F)(F)F)ccc5[nH]4)cc3)c2)c1 | 257 nM |

| SMILES | XC50 |
| --- | --- |
| Cc1ccc([S+]([O-])Cc2ccc(Cl)cc2)cc1 (stereo unspecified) | 196 nM |
| CC(=O)N(Cc1cccc(-c2cccc(CNCc3ccc4c(c3)OCO4)c2)c1)C1CCN(Cc2ccccc2)CC1 | 839 nM |
| COc1ccc(NS(=O)(=O)c2cccc(C(=O)Nc3ccc(C(F)(F)F)cc3)c2)cc1N1CCN(CC(C)C)CC1 | 838 nM |
| CC(CNC(=O)c1cc2c(Cl)cc(Cl)cc2[nH]1)CNc1cc(=O)c2ccccc2[nH]1 (stereo unspecified) | 715 nM |
| OC(COCc1ccc(-c2ccccc2)cc1)CN1CCCCC1 (stereo unspecified) | 269 nM |
| CCNc1cc(C(=O)N[C@@H](Cc2cccc(Cl)c2)[C@H](O)CNC(C)CCCC(C)C)cc(N2CCCCS2(=O)=O)c1 (stereo partly specified) | 285 nM |
| Cc1ccc(F)c(CN2CCC(N3CC(c4ccccc4)(c4ccccc4)OC3=O)CC2)c1Cl | 593 nM |
| Cc1noc(C)c1CN1Cc2ccccc2OC2(CCN(Cc3c[nH]c4cnccc34)CC2)C1 | 1070 nM |
| Nc1nccc2ccc(-c3ccc(Oc4ccccc4)cc3)cc12 | 278 nM |
| CC(C)(C)c1cc(CN2CCN(Cc3ccccc3)CC2)cc(C(C)(C)C)c1O | 771 nM |
| O=C(Nc1cccc(-c2cccc(-c3nc4ccccc4[nH]3)c2)c1)Nc1ccc(Cl)c(Cl)c1 | 131 nM |
| CC(C)(C)c1cc(C(=O)N2CCN(c3cnccn3)CC2)n(Cc2ccccc2)n1 | 1140 nM |
| CN1C(=O)C(=O)N(CCCCCONC(=N)N)C1=S | 197 nM |
| CCOC(=O)c1ccc(NC(=O)NC2CCN(CCCCCNC(=O)/C=C/c3ccc(Cl)c(Cl)c3)C2)cc1 (stereo unspecified) | 487 nM |
| CC(C)c1ccc(NC(=O)c2cccc(CN3CCCN(Cc4cccc(C#N)c4)CC3)c2)cc1 | 948 nM |
| O=C(Nc1ccc(-c2cccc(-c3nc4cc(C(F)(F)F)ccc4[nH]3)c2)cc1)c1ccoc1 | 829 nM |
| COc1ccc2nccc([C@@H](O)CN3CCC(NCC(=O)Nc4cc(F)cc(F)c4)CC3)c2n1 | 912 nM |
| CC(C)c1ccc(NC(=O)NCC2CCCN(CCCCCNC(=O)/C=C/c3ccc(Cl)c(Cl)c3)C2)cc1 (stereo unspecified) | 806 nM |
| Cc1cccc2nc(-c3ccc(-c4ccc(NC(=O)Nc5ccc(Cl)c(Cl)c5)cc4)s3)[nH]c12 | 176 nM |
| O=C(/C=C/c1ccc(Cl)c(Cl)c1)NCCCCCN1CCC(CCNC(=O)C2(c3ccc(Cl)cc3)CC2)CC1 | 925 nM |
| Cn1cncc1C(=O)Nc1cccc(-c2ccc(-c3nc4cc(F)ccc4[nH]3)s2)c1 | 872 nM |
| CCOc1ccc(-c2nonc2NC(=O)c2ccccc2Cl)cc1OCC | 742 nM |
| Cc1cc(NC2CCCC2)nc(Nc2ccccc2F)n1 | 926 nM |
| O=C(NCCc1ccccc1)N(Cc1ccccc1-c1cccc(CNCCc2ccccc2)c1)C1CCN(Cc2ccccc2)CC1 | 625 nM |
